{"source": "patent US20120148541A1", "about": "“COMPOSITIONS AND METHODS TO GENERATE PILOSEBACEOUS UNITS” (priority 2010, published 2012)", "origin": "cited, not measured here", "key": {"[1]": {"details": "DMSO"}, "[2]": {"details": "in published reports"}}, "data": [{"smiles": "c1cc(-c2cnn3cc(-c4ccc(OCCN5CCCCC5)cc4)cnc23)ccn1", "note": "[Dorsomorphin, dorsomorphin]", "values": [{"measurement": "solubility", "setting": "[1]", "result": "soluble in DMSO"}, {"measurement": "toxicity", "setting": "[2]", "result": "low toxicity"}]}]}
